What is called bioavailability is the share of a dose that reaches the circulation, judged against a reference dose that is usually intravenous. The term MIC90 denotes an inhibitory concentration at the 90% level, which refers to growth in some studies and to a panel of isolates in others. A word on the MBC: it is the smallest concentration meeting the test's criterion for killing.

Results on five compounds are retold here after PMC11695783 (Frontiers in Pharmacology, 2024).

Converted amounts (≈) assume the structure as drawn. Where two headings read alike, the source gives them in different places.

The conditions of data set [1]: broilers, cited from earlier work.
The test system of the next data set is mice. To be noted: oral acute toxicity; ref Fan et al., 2022; Hu et al.; Zhang et al., 2015; Zuo et al., 2020; cited from earlier work.
The conditions of data set [2]: 2020, cited from earlier work; for AUC0-∞: ref Zuo et al.; for bioavailability: mice, ref Wang Y. et al., 2024, Zuo et al.
On the set-up of data set [3]: method as in Wang Y. et al., 2024; Zuo et al., 2020. To be noted: chickens, ref Wang Y. et al., 2024, Zuo et al., 2020, cited from earlier work.
The test system of another data set is M. pneumoniae. Details: method as in Eraikhuemen et al., 2021. To be noted: against M. pneumoniae; ref Eraikhuemen et al., 2021; cited from earlier work.
Data set [4] concerns Mycoplasma pneumoniae strain M129 (ATCC 29342). In words: Susceptibility assay (broth microdilution MIC, MBC). The class given is cell-based. The protocol:
(§1) Mycoplasma pneumoniae strain M129 (ATCC 29342) was obtained from American Type Culture Collection (Manassas, VA, United States) and cultured at 37°C in the presence of 5% CO2 in the modified SP-4 liquid medium (pH 7.4) containing 2.1% (w/v) CM1166 mycoplasma broth base medium (Oxoid, Hants, United Kingdom), 20% (v/v) fetal bovine serum (FBS, Bioexplorer, CO, United States), 0.4% yeast extract (Oxoid), 0.55% (w/v) CMRL 1066 w/L-glutamine culture media powder (MyBioSource, San Diego, CA, United States), 1% D-glucose (Macklin) and 0.004% phenol red (Macklin). […] The solid medium is based on the above formula with the addition of 1% agar, and the characteristic fried egg-like colonies were used for experiments following incubation for 7 d on plates.
The broth microdilution MIC procedure was performed according to standardized methods for microdilution susceptibility testing of mycoplasma species ([Waites et al., 2012]). […] The concentration of organisms should be determined to approximately 10^6 CFU/mL prior to inoculation into 96-well plates. Due to the action of phenol red, the acidic metabolites of microbial growth can turn the medium yellow. […] The MBC assays were performed based on MICs following endpoint reading and the liquid in the high-concentration wells was removed for bacterial counting.

Data set [5] shares this test system. The data set can be described thus: Time-kill curves. The format is cell-based. Also noted: M. pneumoniae count in time-kill curve: unit not given here. The protocol:
as §1
The tubes were incubated at 37°C in 5% CO2 for 72 h, and 200 µL of the culture was removed every 12 h for 10-fold serial dilutions. The diluted cultures were plated on plates for further culture and counted after 7 d. The experiment was repeated three times.

Take `C=C[C@]1(C)C[C@@H](OC(=O)CSc2nnc(N)s2)[C@]2(C)[C@H](C)CC[C@]3(CCC(=O)[C@H]32)[C@@H](C)[C@@H]1O` [ATTM, 14-o-[(2-amino-1,3,4-thiadiazol-5-yl)thioacetyl] mutilin]: the bioavailability in data set [1] (IM, ref Shang et al., 2018, Xianhui, 2010) was 75.29%; in data set [1] (PO, ref Shang et al., 2018, Xianhui, 2010), 72.03%. Besides, in the data set with mice, the LD50 is recorded as 2,304.4 mg/kg.

On to `C=C[C@]1(C)C[C@@H](OC(=O)CSc2ccccc2N)[C@]2(C)[C@H](C)CC[C@]3(CCC(=O)[C@H]32)[C@@H](C)[C@@H]1O` [amphenmulin, 22-(2-amino-phenylsulfanyl)-22-deoxypleuromutilin], for which the “AUC0-∞” value is 2520 ng·h/mL in data set [2] (intraperitoneal, at the same dose); 12230 ng·h/mL in data set [2] (intravenous, at the same dose as compound 16C); 1670 ng·h/mL in data set [2] (oral, at the same dose). Also, the bioavailability in data set [2] (IP) is on record as 20.71%; in data set [2] (PO), 13.65%; in data set [3] (IM) it was 52.14%; in data set [3] (PO), 5.88%. Besides, the LD50 with mice is > 5,000 mg/kg.

Take `C=C[C@]1(C)C[C@@H](OC(=O)CS[C@@H]2CC[C@@H](N)C[C@H]2O)[C@]2(C)[C@H](C)CC[C@]3(CCC(=O)[C@H]32)[C@@H](C)[C@@H]1O` [lefamulin]: in the data set on M. pneumoniae, the MIC90 is 0.006 µg/mL (≈ 0.0118 µM).

On to `CN(C)[C@@H]1C(O)=C(C(N)=O)C(=O)[C@@]2(O)C(O)=C3C(=O)c4c(O)cccc4[C@@](C)(O)[C@H]3C[C@@H]12` [tetracycline], for which the MBC in data set [4] is 3.2 µg/mL (≈ 7.2 µM). Besides, the “M. pneumoniae count in time-kill curve” value was 6.522 in data set [5] (1×MIC, time 0); 6.243 in data set [5] (1×MIC, time 12); 5.358 in data set [5] (1×MIC, time 24); 5.0751 in data set [5] (1×MIC, time 36); 3.623 in data set [5] (1×MIC, time 48); 4.011 in data set [5] (1×MIC, time 60). The “M. pneumoniae count in time-kill curve” value is 4.04 in data set [5] (1×MIC, time 72); 6.522 in data set [5] (2×MIC, time 0); 5.562 in data set [5] (2×MIC, time 12); 5.13 in data set [5] (2×MIC, time 24); 4.505 in data set [5] (2×MIC, time 36); 3.395 in data set [5] (2×MIC, time 48). Also, the “M. pneumoniae count in time-kill curve” value is listed as 3.925 in data set [5] (2×MIC, time 60); 4.141 in data set [5] (2×MIC, time 72); 6.522 in data set [5] (4×MIC, time 0); 5.527 in data set [5] (4×MIC, time 12); 4.565 in data set [5] (4×MIC, time 24); 4.182 in data set [5] (4×MIC, time 36). Moreover, the “M. pneumoniae count in time-kill curve” value in data set [5] (4×MIC, time 48) came to 3.523; in data set [5] (4×MIC, time 60), 3.499; in data set [5] (4×MIC, time 72), 3.057; in data set [5] (8×MIC, time 0) it was 6.522; in data set [5] (8×MIC, time 12) it was 5.0382; in data set [5] (8×MIC, time 24), 4.431. For the same compound, the “M. pneumoniae count in time-kill curve” value in data set [5] (8×MIC, time 36) is on record as 4.11; in data set [5] (8×MIC, time 48), 3.568; in data set [5] (8×MIC, time 60), 3.5; in data set [5] (8×MIC, time 72), 3.462; in data set [5] (16×MIC, time 0), 6.522; in data set [5] (16×MIC, time 12), 5.216. For the same compound, the “M. pneumoniae count in time-kill curve” value in data set [5] (16×MIC, time 24) stood at 4.191; in data set [5] (16×MIC, time 36) it was 3.827; in data set [5] (16×MIC, time 48) it was 3.742; in data set [5] (16×MIC, time 60) it was 3.715; in data set [5] (16×MIC, time 72), 3.031; in data set [5] (32×MIC, time 0), 6.522. For the same compound, the “M. pneumoniae count in time-kill curve” value was 4.677 in data set [5] (32×MIC, time 12); 4.038 in data set [5] (32×MIC, time 24); 3.597 in data set [5] (32×MIC, time 36); 3.571 in data set [5] (32×MIC, time 48); 3.497 in data set [5] (32×MIC, time 60); 3.078 in data set [5] (32×MIC, time 72). The “M. pneumoniae count in time-kill curve” value in data set [5] (64×MIC, time 0) worked out at 6.522; in data set [5] (64×MIC, time 12), 4.323; in data set [5] (64×MIC, time 24) it was 4.306; in data set [5] (64×MIC, time 36), 3.779; in data set [5] (64×MIC, time 48) it was 3.079; in data set [5] (64×MIC, time 60), 3.41. Besides, in data set [5] (64×MIC, time 72), the “M. pneumoniae count in time-kill curve” value is listed as 3.079. The “reduction of bacterial counts” value in data set [5] (1–2×MIC, 72 h) is listed as 2.38–2.48 log10 CFU/mL. For the same compound, the “concentration at which bactericidal effect was achieved” value in data set [5] (static time-kill, 72 h) was at least 4 × MIC.

Turning to `C=C[C@]1(C)C[C@@H](OC(=O)CSC(C)(C)CNC(=O)[C@H](N)C(C)C)[C@]2(C)[C@H](C)CC[C@]3(CCC(=O)[C@H]32)[C@@H](C)[C@@H]1O` [valnemulin], the bioavailability in data set [1] (IM, ref WANG et al., 2011) is 88.81%.
